Like-named read-outs stand apart in the source and are kept apart here.
Tests used:
[1] = target: T1, human D2s dopamine receptors (Homo sapiens, UniProt P14416); test: hD2S receptor radioligand binding ([3H]spiperone); conditions: pKi reported on a scale of 1 through 5
T1 construct: expressed in transfected cells; host or cells: Chinese hamster ovary cells (membranes)
Description: (§1) Consistent with standard competition radioligand binding assays, the methodology was based on displacement of radioligand from tissues (or cell lines) bearing the receptor of interest (Cheng, Y. and Prusoff, W. H. (1973). Biochem. Pharmacol. 22, 3099-3108). The measurements were based on the binding of a single concentration of radiolabeled ligand in the presence of various concentrations of unlabeled ligand.
(§2) Tissues (or cellular plasma membrane fractions) were incubated in the presence of radioligand at equilibrium and in the presence of a range of concentrations of the test compounds (which were non-radiolabeled), and the displaced radioligand was separated from the membranes by filtration. Nonspecific binding was assessed by measuring displacement of the radioligand in the presence of a compound known to block binding of the radioligand to the receptor. Finally, the concentration-response relationship for radioligand displacement (corrected for non-specific binding) was used to assess binding of the test compound to the receptor.

human 5HT1A receptors = target: T2, human 5HT1A receptors (Homo sapiens, UniProt P08908); test: h5-HT1A receptor radioligand binding ([3H]8OH-DPAT); conditions: pKi reported on a scale of 1 through 5
T2 construct: expressed in transfected cells; host or cells: Chinese hamster ovary cells (membranes)
T2 sequence (P08908 1-422): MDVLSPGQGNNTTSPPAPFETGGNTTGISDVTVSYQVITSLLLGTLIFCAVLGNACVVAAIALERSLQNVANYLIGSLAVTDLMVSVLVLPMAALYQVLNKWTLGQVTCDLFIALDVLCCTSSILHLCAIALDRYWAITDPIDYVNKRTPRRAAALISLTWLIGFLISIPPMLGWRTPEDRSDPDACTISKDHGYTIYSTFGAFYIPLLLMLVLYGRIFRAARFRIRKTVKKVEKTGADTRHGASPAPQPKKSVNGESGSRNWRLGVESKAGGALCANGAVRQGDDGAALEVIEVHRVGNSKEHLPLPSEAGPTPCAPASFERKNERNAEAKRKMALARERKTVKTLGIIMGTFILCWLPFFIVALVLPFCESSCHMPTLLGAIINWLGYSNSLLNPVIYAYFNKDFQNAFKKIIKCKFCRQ
Description: as §1, §2

human 5HT2C receptors = target: T3, human 5HT2C receptors (Homo sapiens, UniProt P28335); test: h5-HT2C receptor radioligand binding ([3H]Mesulergine); conditions: pKi reported on a scale of 1 through 5
T3 construct: expressed in transfected cells; host or cells: human embryo kidney cells (membranes)
T3 sequence (P28335 33-458): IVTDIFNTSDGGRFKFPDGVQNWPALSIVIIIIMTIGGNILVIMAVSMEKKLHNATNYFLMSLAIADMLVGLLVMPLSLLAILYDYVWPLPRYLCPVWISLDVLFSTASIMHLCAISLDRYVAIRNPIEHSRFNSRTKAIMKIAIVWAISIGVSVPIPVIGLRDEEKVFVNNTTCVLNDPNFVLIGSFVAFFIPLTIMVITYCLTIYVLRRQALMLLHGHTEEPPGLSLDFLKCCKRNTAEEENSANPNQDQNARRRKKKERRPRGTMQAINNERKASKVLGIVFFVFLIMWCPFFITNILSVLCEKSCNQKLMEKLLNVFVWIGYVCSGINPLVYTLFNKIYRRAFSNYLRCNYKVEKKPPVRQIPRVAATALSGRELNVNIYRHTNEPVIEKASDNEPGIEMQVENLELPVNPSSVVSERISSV
Description: The measurements were based on the binding of a single concentration of radiolabeled ligand in the presence of various concentrations of unlabeled ligand.
as §2

human H1 receptors = target: T4, human H1 receptors (Homo sapiens, UniProt P35367); test: hH1 receptor radioligand binding ([3H]Pyrilamine); conditions: pKi reported on a scale of 1 through 5
T4 construct: expressed in transfected cells; host or cells: Chinese hamster ovary cells (membranes)
Description: as §1, §2

5-HT2A receptor = target: T5, 5-HT2A receptor (Rattus norvegicus, UniProt P14842); test: cell-based; conditions: read-out: 5HT2A (pKb) (converted)
T5 construct: Eight strips of tissue (0.5 cm long) were cut. and were mounted in 10 ml organ baths; tissue Charles River Laboratories; host or cells: rat aorta strips, endothelium removed
Description: The rat aorta (approximately 7 cm) was isolated and removed from the animal (male Sprague Dawley rat, Charles River Laboratories, Hollister, Calif.). The endothelium was removed mechanically. Eight strips of tissue (0.5 cm long) were cut. and were mounted in 10 ml organ baths kept at 37° C. with Krebs solution (composition in mM: NaCl (118.2), KCl (4.6), CaCl2 (2.5), MgSO4 (1.2), KH2PO4 (1.2), NaHCO3 (24.8) and dextrose (10.0)) that was constantly aerated with carbogen gas (95% O2/5% CO2) to obtain a pH of 7.4. The tissues were subjected to a resting tension of 2 g (3 times, 15 minutes apart, equilibrated in Krebs solution). The tissues were then washed 15 minutes later. Ten minutes later, the tissues were then exposed to 0.1 μM phenylephrine. At the maximal effect, 1 μM acetylcholine was added to confirm the absence of endothelium and then washed twice, 2 minutes apart.
Contractions were recorded as changes in tension from baseline and expressed as a percentage of the maximum response of the agonist (5-HT) concentration-effect curve. Agonist concentration-response curves were fitted using a nonlinear iterative fitting program (GraphPad Prism) using the relationship of Parker and Waud (Parker, R. B. and Waud, D. R. (1971). Pharmacological estimation of drug-receptor dissociation constants. Statistical evaluation. I. Agonists. J. Pharmacol. Exp. Ther., 177, 1-12). Agonist potency was expressed as EC50 (molar concentration of agonist producing 50% of the maximum response). Concentration-ratios (CRs) were determined from EC50 values in the presence and absence of antagonist and antagonist affinity estimates (pKB and pA2 values) were determined. All data are expressed as mean±s.e. mean.

human M1 receptors = target: T6, human M1 receptors (Homo sapiens, UniProt P11229); test: hM1 receptor radioligand binding ([3H]NMS); conditions: pKi reported on a scale of 1 through 5
T6 construct: expressed in transfected cells; host or cells: Chinese hamster ovary cells (membranes)
T6 sequence (P11229 1-460): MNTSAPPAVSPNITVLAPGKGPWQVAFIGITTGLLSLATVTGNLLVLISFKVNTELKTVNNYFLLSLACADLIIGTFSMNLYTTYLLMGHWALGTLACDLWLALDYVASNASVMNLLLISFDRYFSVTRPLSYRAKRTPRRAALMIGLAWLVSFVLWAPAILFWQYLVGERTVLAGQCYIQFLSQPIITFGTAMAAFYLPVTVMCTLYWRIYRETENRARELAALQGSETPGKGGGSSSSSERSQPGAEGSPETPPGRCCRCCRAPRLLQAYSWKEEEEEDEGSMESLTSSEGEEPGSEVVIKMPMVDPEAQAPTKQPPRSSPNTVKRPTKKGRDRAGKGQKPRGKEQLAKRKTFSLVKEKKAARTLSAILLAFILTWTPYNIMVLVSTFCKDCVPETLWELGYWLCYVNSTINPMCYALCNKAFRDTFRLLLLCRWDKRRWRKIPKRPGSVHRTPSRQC
Description: as §1, §2

[2] = pKb reported on a scale of 1 through 5

T5 sequence (P14842 whole entry): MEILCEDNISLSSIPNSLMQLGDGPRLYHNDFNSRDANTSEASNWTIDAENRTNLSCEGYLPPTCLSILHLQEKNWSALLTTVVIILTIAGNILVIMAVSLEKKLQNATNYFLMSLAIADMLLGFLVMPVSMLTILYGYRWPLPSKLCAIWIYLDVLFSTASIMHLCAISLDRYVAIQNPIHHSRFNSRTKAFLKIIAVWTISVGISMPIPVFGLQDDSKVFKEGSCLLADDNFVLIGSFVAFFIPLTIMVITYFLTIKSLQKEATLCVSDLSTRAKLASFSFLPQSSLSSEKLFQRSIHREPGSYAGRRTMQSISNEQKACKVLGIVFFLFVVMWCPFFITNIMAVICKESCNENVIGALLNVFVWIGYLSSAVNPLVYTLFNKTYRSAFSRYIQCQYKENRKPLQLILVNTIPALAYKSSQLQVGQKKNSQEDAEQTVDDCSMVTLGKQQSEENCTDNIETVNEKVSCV
T1 sequence (P14416 1-414 isoform P14416-2): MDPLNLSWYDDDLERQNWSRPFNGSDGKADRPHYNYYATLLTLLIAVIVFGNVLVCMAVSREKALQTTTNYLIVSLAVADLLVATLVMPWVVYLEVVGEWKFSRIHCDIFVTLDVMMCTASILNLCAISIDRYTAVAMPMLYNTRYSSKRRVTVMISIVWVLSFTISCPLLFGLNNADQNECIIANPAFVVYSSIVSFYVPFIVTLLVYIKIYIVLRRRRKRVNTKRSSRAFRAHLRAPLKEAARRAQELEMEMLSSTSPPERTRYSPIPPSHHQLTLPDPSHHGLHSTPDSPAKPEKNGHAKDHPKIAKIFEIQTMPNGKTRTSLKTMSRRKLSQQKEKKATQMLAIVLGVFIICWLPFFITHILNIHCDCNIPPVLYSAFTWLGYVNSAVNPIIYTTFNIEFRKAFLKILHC
T4 sequence (P35367 whole entry): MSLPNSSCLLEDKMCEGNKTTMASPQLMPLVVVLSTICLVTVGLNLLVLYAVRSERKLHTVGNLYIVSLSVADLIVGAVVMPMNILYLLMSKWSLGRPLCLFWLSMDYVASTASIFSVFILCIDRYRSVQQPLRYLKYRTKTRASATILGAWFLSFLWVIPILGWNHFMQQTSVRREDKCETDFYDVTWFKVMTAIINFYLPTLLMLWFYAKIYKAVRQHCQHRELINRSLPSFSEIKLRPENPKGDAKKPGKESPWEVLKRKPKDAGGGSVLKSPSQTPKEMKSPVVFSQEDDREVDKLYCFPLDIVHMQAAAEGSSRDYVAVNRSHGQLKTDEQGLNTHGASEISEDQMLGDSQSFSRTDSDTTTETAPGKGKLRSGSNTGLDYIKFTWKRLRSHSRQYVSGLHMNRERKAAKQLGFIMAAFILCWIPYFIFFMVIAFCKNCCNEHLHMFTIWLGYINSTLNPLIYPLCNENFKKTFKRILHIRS

SMILES	Ki [1] [nM]	Ki (human 5HT1A receptors) [nM]	Ki (human 5HT2C receptors) [nM]	Ki (human H1 receptors) [nM]	Kb (5-HT2A receptor; [2]) [nM]	Ki (human M1 receptors) [nM]	Kb (5-HT2A receptor) [nM]
CN1CCN(C2=Nc3cc(Cl)ccc3Oc3ccccc32)CC1CC(=O)O (centres unmarked) [DO, (E)-2-(4-(8-chlorodibenzo[b,f][1,4]oxazepin-11-yl)-1-methylpiperazin-2-yl)acetic acid]	> 10000	1000 to 9770	100 to 977	10 to 97.7			
CCOC(=O)c1ccc(CCC2CN(C3=Nc4cc(Cl)ccc4Oc4ccccc43)CCN2)cc1 (centres unmarked) [Compound F, (E)-ethyl 4-(2-(4-(8-chlorodibenzo[b,f][1,4]oxazepin-11-yl)piperazin-2-yl)ethyl)benzoate]	631 to 2450			1000 to 9770	> 100	1260 to 2450	
CC(C)CNC(=O)CC1CN(C2=Nc3cc(Cl)ccc3Oc3ccccc32)CCN1 (centres unmarked) [B, (E)-2-(4-(8-chlorodibenzo[b,f][1,4]oxazepin-11-yl)piperazin-2-yl)-N-isobutylacetamide]	158 to 617					> 10000	31.6 to 97.7
O=C(C[C@H]1CN(C2=Nc3cc(Cl)ccc3Oc3ccccc32)CCN1)N1CC[C@@H](O)C1 [GE, 2-((S)-4-((E)-8-chlorodibenzo[b,f][1,4]oxazepin-11-yl)piperazin-2-yl)-1-((R)-3-hydroxypyrrolidin-1-yl)ethanone]	2510 to 9770	100 to 977				2510 to 4900	10 to 30.9
COC(=O)COCC1CN(C2=Nc3ccccc3Oc3ccc(Cl)cc32)CCN1C (centres unmarked) [DM, (E)-methyl 2-((4-(2-chlorodibenzo[b,f][1,4]oxazepin-11-yl)-1-methylpiperazin-2-yl)methoxy)acetate]	> 10000						10 to 30.9
CN1CC[C@@H](OC(=O)C[C@H]2CN(C3=Nc4cc(Cl)ccc4Oc4ccccc43)CCN2C)C1 [ES, (R)-1-methylpyrrolidin-3-yl 2-((S)-4-((E)-8-chlorodibenzo[b,f][1,4]oxazepin-11-yl)-1-methylpiperazin-2-yl)acetate]	> 10000	1000 to 9770		10 to 97.7		> 10000	
CN1CCN(C2=Nc3cc(Cl)ccc3Oc3ccccc32)C[C@@H]1CC(=O)OCCCF [EX, (S,E)-3-fluoropropyl 2-(4-(8-chlorodibenzo[b,f][1,4]oxazepin-11-yl)-1-methylpiperazin-2-yl)acetate]	2510 to 9770	1000 to 9770	100 to 977	10 to 97.7		5010 to 9770	
CC[C@H](C)OC(=O)C[C@H]1CN(C2=Nc3cc(Cl)ccc3Oc3ccccc32)CCN1 [EP, sec-butyl 2-((S)-4-((E)-8-chlorodibenzo[b,f][1,4]oxazepin-11-yl)piperazin-2-yl)acetate]	158 to 617	10 to 97.7		100 to 977		5010 to 9770	10 to 30.9
CN1CCN(C2=Nc3cc(Cl)ccc3Oc3ccccc32)C[C@@H]1CC(=O)N(CC(F)(F)F)CC(F)(F)F [EW, (S,E)-2-(4-(8-chlorodibenzo[b,f][1,4]oxazepin-11-yl)-1-methylpiperazin-2-yl)-N,N-bis(2,2,2-trifluoroethyl)acetamide]	> 10000	1000 to 9770	1000 to 9770	100 to 977	> 100	5010 to 9770	
COC(=O)C[C@H]1CN(C2=Nc3cc(Cl)ccc3Oc3ccccc32)CCN1CC1CC1 [ET, (S,E)-methyl 2-(4-(8-chlorodibenzo[b,f][1,4]oxazepin-11-yl)-1-(cyclopropylmethyl)piperazin-2-yl)acetate]	631 to 2450	1000 to 9770		100 to 977	> 100	2510 to 4900	
CCOC(=O)CC1CN(C2=Nc3ccccc3Oc3ccc(Cl)cc32)CCN1 (single isomer, unassigned) [Compound C, (E)-ethyl 2-(4-(2-chlorodibenzo[b,f][1,4]oxazepin-11-yl)piperazin-2-yl)acetate]	2510 to 9770					> 10000	31.6 to 97.7
COC(=O)c1ccc(OC[C@H]2CN(C3=Nc4ccccc4Oc4ccc(Cl)cc43)CCN2)cc1 [D, (R,E)-methyl 4-((4-(2-chlorodibenzo[b,f][1,4]oxazepin-11-yl)piperazin-2-yl)methoxy)benzoate]	631 to 2450			100 to 977		> 10000	31.6 to 97.7
CN1CCN(C2=Nc3cc(Cl)ccc3Oc3ccccc32)C[C@@H]1CC(=O)NC(CF)CF [EV, (S,E)-2-(4-(8-chlorodibenzo[b,f][1,4]oxazepin-11-yl)-1-methylpiperazin-2-yl)-N-(1,3-difluoropropan-2-yl)acetamide]	2510 to 9770	1000 to 9770		10 to 97.7		5010 to 9770	31.6 to 97.7
COC(=O)c1ccc(OCC2CN(C3=Nc4cc(Cl)ccc4Oc4ccccc43)CCN2)cc1 (centres unmarked) [G, (E)-methyl 4-((4-(8-chlorodibenzo[b,f][1,4]oxazepin-11-yl)piperazin-2-yl)methoxy)benzoate]	2510 to 9770			1000 to 9770		5010 to 9770	10 to 30.9
COCCNC(=O)C[C@H]1CN(C2=Nc3cc(Cl)ccc3Oc3ccccc32)CCN1CCO [GI, (S,E)-2-(4-(8-chlorodibenzo[b,f][1,4]oxazepin-11-yl)-1-(2-hydroxyethyl)piperazin-2-yl)-N-(2-methoxyethyl)acetamide]	> 10000	1000 to 9770				> 10000	31.6 to 97.7

Source: US20120178738A1, “DIBENZO [B,F] [1,4]OXAZAPINE COMPOUNDS” (ARYX THERAPEUTICS, INC., priority 2007, published 2012)
